pIC50: −log10 of the molar value. Where a name gives a salt, the structure may show the parent alone.

For the first assay, the system named is SUDHL-6 cell line (diffuse large B cell lymphoma). Nature of the assay: SUDHL-6 cell proliferation assay (Example B3). It counts as cell-based. To be noted: Homo sapiens, SU-DHL-6, 72 h, SUDHL-6 cells, 3 days, Cell Titer-GLO. Here is the method: Example B3: SUDHL-6 Cell Proliferation Assay
SUDHL-6 cell line (diffuse large B cell lymphoma) was purchased from ATCC (Manassas, Va.) and maintained in the culture medium recommended (RPMI and 10% FBS). To measure the anti-proliferation activity of the compounds through ATP quantitation, the SUDHL-6 cells was plated with the culture medium (5000 cells/well/per 200 μl) into 96-well polystyrene clear black tissue culture plate (Greiner-bio-one through VWR, NJ) in the presence or absence of a concentration range of test compounds. After 3 days, Cell Titer-GLO Luminescent (Promega, Madison, Wis.) cell culture agent was added to each well for 10 minutes at room temperature to stabilize the luminescent signal. This determines the number of viable cells in culture based on quantitation of the ATP present, which signals the presence of metabolically active cells. Luminescence was measured with the TopCount 384 (Packard Bioscience through Perkin Elmer, Boston, Mass.). […] IC50 data for the Examples is presented in Table 4 determined by the assay of Example B3.
Molecule `Cc1nn(C(C)c2cc(Cl)c(C#N)c3c2O[C@@H](C)CN(C2CN(CCO)C2)C3)c2ncnc(N)c12` (stereo partly drawn) [Example 56, (2S)-9-[1-(4-Amino-3-methyl-1H-pyrazolo[3,4-d]pyrimidin-1-yl)ethyl]-7-chloro-4-[1-(2-hydroxyethyl)azetidin-3-yl]-2-methyl-2,3,4,5-tetrahydro-1,4-benzoxazepine-6-carbonitrile] had a pIC50 of at least 6.30.

For `Cc1nn(C(C)c2cc(Cl)c(C#N)c3c2OCCN(C2CN(S(C)(=O)=O)C2)C3)c2ncnc(N)c12` (centres unmarked) [Example 90, 9-[1-(4-amino-3-methyl-1H-pyrazolo[3,4-d]pyrimidin-1-yl)ethyl]-7-chloro-4-[1-(methylsulfonyl)azetidin-3-yl]-2,3,4,5-tetrahydro-1,4-benzoxazepine-6-carbonitrile], the pIC50 was at least 6.30.

In the case of `COCCN1Cc2c(C#N)c(Cl)cc(C(C)n3nc(C)c4c(N)ncnc43)c2OC(C)C1` (single isomer, unassigned) [Example 112, 9-[1-(4-amino-3-methyl-1H-pyrazolo[3,4-d]pyrimidin-1-yl)ethyl]-7-chloro-4-(2-methoxyethyl)-2-methyl-2,3,4,5-tetrahydro-1,4-benzoxazepine-6-carbonitrile], the negative logarithm of the IC50 (pIC50) is at least 6.30.

`Cc1nn(C(C)c2cc(Cl)c(C#N)c3c2OC(C)CN(CC#N)C3)c2ncnc(N)c12` (single isomer, unassigned) [Example 108, 9-[1-(4-amino-3-methyl-1H-pyrazolo[3,4-d]pyrimidin-1-yl)ethyl]-7-chloro-4-(cyanomethyl)-2-methyl-2,3,4,5-tetrahydro-1,4-benzoxazepine-6-carbonitrile] showed a pIC50 of at least 6.30.

Consider `Cc1nn(C(C)c2cc(Cl)c(F)c3c2OC(C)CN(C2CN(C(N)=O)C2)C3)c2ncnc(N)c12` (single isomer, unassigned) [Example 83, 3-[9-[1-(4-amino-3-methyl-1H-pyrazolo[3,4-d]pyrimidin-1-yl)ethyl]-7-chloro-6-fluoro-2-methyl-2,3-dihydro-1,4-benzoxazepin-4(5H)-yl]azetidine-1-carboxamide], for which the negative-log IC50 (pIC50) was at least 6.30.

In turn, `Cc1nn(C(C)c2cc(Cl)c(C#N)c3c2OC(C)CN(C2CN(CC(C)(C)O)C2)C3)c2ncnc(N)c12` (single isomer, unassigned) [Example 54, 9-[1-(4-Amino-3-methyl-1H-pyrazolo[3,4-d]pyrimidin-1-yl)ethyl]-7-chloro-4-[1-(2-hydroxy-2-methylpropyl)azetidin-3-yl]-2-methyl-2,3,4,5-tetrahydro-1,4-benzoxazepine-6-carbonitrile] showed a negative logarithm of the IC50 (pIC50) of at least 6.30.

`Cc1nn(C(C)c2cc(Cl)c(F)c3c2OC(C)CN(C2CN(S(N)(=O)=O)C2)C3)c2ncnc(N)c12` (single isomer, unassigned) [Example 82, 3-[9-[1-(4-amino-3-methyl-1H-pyrazolo[3,4-d]pyrimidin-1-yl)ethyl]-7-chloro-6-fluoro-2-methyl-2,3-dihydro-1,4-benzoxazepin-4(5H)-yl]azetidine-1-sulfonamide] gave a pIC50 of at least 6.30.

For the molecule `Cc1nn(C(C)c2cc(Cl)c(C#N)c3c2OCCN(CCO)C3)c2ncnc(N)c12` (centres unmarked) [Example 58, 9-[1-(4-Amino-3-methyl-1H-pyrazolo[3,4-d]pyrimidin-1-yl)ethyl]-7-chloro-4-(2-hydroxyethyl)-2,3,4,5-tetrahydro-1,4-benzoxazepine-6-carbonitrile], the pIC50 was at least 6.30.

As for `Cc1c(Cl)cc(C(C)n2nc(C)c3c(N)ncnc32)c2c1CN(c1ncc(C#N)s1)CCO2` (centres unmarked) [Example 23, 2-[9-[1-(4-Amino-3-methyl-1H-pyrazolo[3,4-d]pyrimidin-1-yl)ethyl]-7-chloro-6-methyl-2,3-dihydro-1,4-benzoxazepin-4(5H)-yl]-1,3-thiazole-5-carbonitrile Trifluoroacetate], the pIC50 was at least 6.30.

The molecule `Cc1nn([C@@H](C)c2cc(Cl)c(F)c3c2O[C@@H](C)CN(C2CN(C[C@H](C)O)C2)C3)c2ncnc(N)c12` [Example 85, (2S)-1-{3-[(2S)-9-[(1S)-1-(4-amino-3-methyl-1H-pyrazolo[3,4-d]pyrimidin-1-yl)ethyl]-7-chloro-6-fluoro-2-methyl-2,3-dihydro-1,4-benzoxazepin-4(5H)-yl]azetidin-1-yl}propan-2-ol] had a pIC50 of at least 6.30.

`Cc1c(Cl)cc(C(C)n2nc(C)c3c(N)ncnc32)c2c1CN(C1CCCC1)CCO2` (centres unmarked) [Example 6, 1-[1-(7-Chloro-4-cyclopentyl-6-methyl-2,3,4,5-tetrahydro-1,4-benzoxazepin-9-yl)ethyl]-3-methyl-1H-pyrazolo[3,4-d]pyrimidin-4-amine bis(trifluoroacetate)] had a pIC50 of at least 6.30.

On to `Cc1nn(C(C)c2cc(Cl)c(F)c3c2O[C@@H](C)CN(C2CC(C(N)=O)C2)C3)c2ncnc(N)c12` (single isomer, unassigned) [Example 44], for which the pIC50 was at least 6.30.

Regarding `CCC(=O)N1CCOc2c(C(C)n3nc(C)c4c(N)ncnc43)cc(Cl)c(C)c2C1` (centres unmarked) [Example 20, 1-[1-(7-Chloro-6-methyl-4-propionyl-2,3,4,5-tetrahydro-1,4-benzoxazepin-9-yl)ethyl]-3-methyl-1H-pyrazolo[3,4-d]pyrimidin-4-amine Trifluoroacetate], the pIC50 was at least 6.30.

`CC(=O)NC1CC(N2Cc3c(C#N)c(Cl)cc(C(C)n4nc(C)c5c(N)ncnc54)c3OC(C)C2)C1` (single isomer, unassigned) [Example 67, N-{3-[9-[1-(4-Amino-3-methyl-1H-pyrazolo[3,4-d]pyrimidin-1-yl)ethyl]-7-chloro-6-cyano-2-methyl-2,3-dihydro-1,4-benzoxazepin-4(5H)-yl]cyclobutyl}acetamide] gave a pIC50 of at least 6.30.

Turning to `CCC(=O)N1CC(N2Cc3c(C#N)c(Cl)cc(C(C)n4nc(C)c5c(N)ncnc54)c3OC(C)C2)C1` (single isomer, unassigned) [Example 95, 9-[1-(4-amino-3-methyl-1H-pyrazolo[3,4-d]pyrimidin-1-yl)ethyl]-7-chloro-2-methyl-4-(1-propionylazetidin-3-yl)-2,3,4,5-tetrahydro-1,4-benzoxazepine-6-carbonitrile], the pIC50 was at least 6.30.

The molecule `CC(=O)N1CC(N2CCOc3c(C(C)n4nc(C)c5c(N)ncnc54)cc(Cl)c(F)c3C2)C1` (centres unmarked) [Example 34, 1-{1-[4-(1-Acetylazetidin-3-yl)-7-chloro-6-fluoro-2,3,4,5-tetrahydro-1,4-benzoxazepin-9-yl]ethyl}-3-methyl-1H-pyrazolo[3,4-d]pyrimidin-4-amine] showed a pIC50 of at least 6.30.

Regarding `CCNC(=O)N1CC(N2Cc3c(C#N)c(Cl)cc(C(C)n4nc(C)c5c(N)ncnc54)c3OC(C)C2)C1` (single isomer, unassigned) [Example 97, 3-[9-[1-(4-amino-3-methyl-1H-pyrazolo[3,4-d]pyrimidin-1-yl)ethyl]-7-chloro-6-cyano-2-methyl-2,3-dihydro-1,4-benzoxazepin-4(5H)-yl]-N-ethylazetidine-1-carboxamide], the pIC50 was at least 6.30.

The assay is the same for the next values; noted with them: SUDHL-6 cells, 3 days, Cell Titer-GLO.
`Cc1nn(C(C)c2cc(Cl)c(C#N)c3c2O[C@@H](C)CN(C2CN(CCO)C2)C3)c2ncnc(N)c12` (stereo partly drawn) [Example 57, (2S)-9-[1-(4-Amino-3-methyl-1H-pyrazolo[3,4-d]pyrimidin-1-yl)ethyl]-7-chloro-4-[1-(2-hydroxyethyl)azetidin-3-yl]-2-methyl-2,3,4,5-tetrahydro-1,4-benzoxazepine-6-carbonitrile]: the pIC50 was at least 6.30.

For `Cc1nn(C(C)c2cc(Cl)c(C#N)c3c2OC(C)CN(C2CN(CC(C)(C)O)C2)C3)c2ncnc(N)c12` (single isomer, unassigned) [Example 55, 9-[1-(4-Amino-3-methyl-1H-pyrazolo[3,4-d]pyrimidin-1-yl)ethyl]-7-chloro-4-[1-(2-hydroxy-2-methylpropyl)azetidin-3-yl]-2-methyl-2,3,4,5-tetrahydro-1,4-benzoxazepine-6-carbonitrile], the pIC50 is at least 6.30.

Take `Cc1nn(C(C)c2cc(Cl)c(C#N)c3c2OC(C)CN(C2CN(CC(N)=O)C2)C3)c2ncnc(N)c12` (centres unmarked) [Example 51, 2-{3-[9-[1-(4-Amino-3-methyl-1H-pyrazolo[3,4-d]pyrimidin-1-yl)ethyl]-7-chloro-6-cyano-2-methyl-2,3-dihydro-1,4-benzoxazepin-4(5H)-yl]azetidin-1-yl}acetamide]: the pIC50 is at least 6.30.

As for `CC(=O)NC1CC(N2Cc3c(C#N)c(Cl)cc(C(C)n4nc(C)c5c(N)ncnc54)c3OC(C)C2)C1` (single isomer, unassigned) [Example 68, N-{3-[9-[1-(4-Amino-3-methyl-1H-pyrazolo[3,4-d]pyrimidin-1-yl)ethyl]-7-chloro-6-cyano-2-methyl-2,3-dihydro-1,4-benzoxazepin-4(5H)-yl]cyclobutyl}acetamide], the pIC50 was at least 6.30.

Molecule `CNC(=O)C1CC(N2Cc3c(C#N)c(Cl)cc(C(C)n4nc(C)c5c(N)ncnc54)c3OC(C)C2)C1` (single isomer, unassigned) [Example 115, 3-[9-[1-(4-amino-3-methyl-1H-pyrazolo[3,4-d]pyrimidin-1-yl)ethyl]-7-chloro-6-cyano-2-methyl-2,3-dihydro-1,4-benzoxazepin-4(5H)-yl]-N-methylcyclobutane-carboxamide] had a pIC50 of at least 6.30.

Consider `Cc1nn(C(C)c2cc(Cl)c(F)c3c2O[C@@H](C)CN(C2CC(C(=O)O)C2)C3)c2ncnc(N)c12` (some centres unmarked) [Example 42, 3-[9-[1-(4-Amino-3-methyl-1H-pyrazolo[3,4-d]pyrimidin-1-yl)ethyl]-7-chloro-6-fluoro-2-methyl-2,3-dihydro-1,4-benzoxazepin-4(5H)-yl]cyclobutanecarboxylic Acid Trifluoroacetate], for which the pIC50 was at least 6.30.

The values above are taken from patent US10259818B2, “Bicyclic azaheterocyclobenzylamines as PI3K inhibitors” (Incyte Corporation, priority 2012, dated 2019).
